Data: patent US12059482B2, “Activity-based probe compounds, compositions, and methods of use” (THE BOARD OF TRUSTEES OF THE LELAND STANFORD JUNIOR …, priority 2016, dated 2024)

System: cysteine cathepsins
Experiment: inhibition of probe labeling in living RAW cells by JPM-OEt pretreatment
Format: cell-based, mouse
Conditions: JPM-OEt pre-treatment (50 μM, 1 hr)
Experimental: RAW cells were cultured in DMEM (GIBCO) supplemented with 10% fetal bovine serum (FBS; GIBCO), 100 units/mL penicillin and 100 μg/mL streptomycin (GIBCO). 4T1 cells (ATCC) were cultured in RPMI (GIBCO) supplemented with 10% fetal bovine serum (FBS; GIBCO), 100 units/mL penicillin and 100 μg/mL streptomycin (GIBCO). All cells were cultured in a 5% CO2 humidified incubator at 37° C. For intact cell labeling, cells were exposed to probe (500× in DMSO) in culture media and incubated for 2 hr at 37° C., unless stated otherwise. Where indicated the cells were preincubated for 1 hr with the inhibitor JPM-OEt (500× in DMSO) or exposed to mouse serum (1 μl probe stock solution in DMSO added to 9 μl serum) for 4 hr before addition to the cells. After labeling, the cells were washed with PBS and resuspended in hypotonic lysis buffer (50 mM PIPES pH 7.4, 10 mM KCl, 5 mM MgCl2, 2 mM EDTA, 4 mM DTT, and 1% NP-40) and put on ice for 15 min, centrifuged at 4° C. for 30 min and supernatants were collected, and protein concentration was determined using a BCA kit (pierce). […] Labeling intensities were quantified using Image J software. […] After 15 min on ice and centrifugation at 4° C. for 30 min the supernatants were collected, and protein concentration was determined using a BCA kit (pierce). […] 4× SDS-sample buffer was added and the protein was denatured for 3 min at 100° C. and analyzed as described above. […]

## JPM-OEt
  blocking of probe labeling: more than 90%
